Test results: patent publication US7169756B2, “Streptogramin antibiotics” (priority 2005, dated 2007)
Values after ≈ are worked out from the molar mass of the structure shown. Read-outs that look alike come from different tables or passages of the source. Numbered stars: 1 amine (or outer) side, 2 acyl side, 3 side chain; on linkers, the order of the positions; unused ones are H or OH. Bridge positions count the residues as written; N and C are the ends. Square brackets hold non-standard residues; d marks the D form. Peptide text beside a SMILES is read from it. * marks the point of attachment. X1 = O=C1C[C@@H](C(=O)[*:2])N([*:1])C[C@H]1CS[C@@H]1CN2CCC1CC2; NMePhe(4-NMe2) = CN[C@@H](Cc1ccc(N(C)C)cc1)C(=O)O; Picolinoyl(3-OH) = O=C(c1ncccc1O)*; Phg = N[C@H](C(=O)O)c1ccccc1; Orn = NCCC[C@H](N)C(=O)O; dAbu = CC[C@@H](N)C(=O)O; Dap = NC[C@H](N)C(=O)O

Legend:
[1] = test system: Staphylococcus epidermidis (ATCC 12228); experiment: microbe, parasite or virus in culture; assay type: cell-based
Experimental: (§1) The antibiotic activity of the peptides synthesized in this study was initially assayed using a disk assay where samples were applied to sterile paper disks placed on a fresh lawn of bacterial culture on appropriate agar plates as required by the organism. These were then incubated for 16 hr at 37° C. and the zone of growth inhibition surrounding the disks recorded. For quantitative assessment of antibiotic activity in liquid culture, the minimal inhibitory concentration (MIC) of peptides was determined by serial dilution studies. The peptides and standard antibiotics were dissolved in DMSO and the final concentration of DMSO in the liquid cultures was 5%. Both S. aureus RN4220 and E. coli BAS901 were able to grow efficiently at this level of DMSO.

[2] = test system: Enterococcus faecalis (ATCC 29212); experiment: microbe, parasite or virus in culture; assay type: cell-based
Experimental: as §1

[3] = test system: Staphylococcus aureus RN4220/pJIM2246Ωvgb; experiment: microbe, parasite or virus in culture; assay type: cell-based
Experimental: as §1

[4] = test system: Staphylococcus aureus RN4220/pJIM2246; experiment: microbe, parasite or virus in culture; assay type: cell-based
Experimental: as §1

[5] = test system: Staphylococcus epidermidis (ATCC 14990); experiment: microbe, parasite or virus in culture; assay type: cell-based
Experimental: as §1

[6] = test system: Staphylococcus aureus RN4220/pJIM2246ΩermB; experiment: microbe, parasite or virus in culture; assay type: cell-based
Experimental: as §1

[7] = test system: Staphylococcus aureus (ATCC 29213); experiment: microbe, parasite or virus in culture; assay type: cell-based
Experimental: as §1

[8] = test system: Staphylococcus saprophyticus (ATCC 15305); experiment: microbe, parasite or virus in culture; assay type: cell-based
Experimental: as §1

[9] = test system: Streptococcus pneumoniae (ATCC 49619); experiment: microbe, parasite or virus in culture; assay type: cell-based
Experimental: as §1

[10] = test system: Streptococcus pneumoniae (ATCC 6305); experiment: microbe, parasite or virus in culture; assay type: cell-based
Experimental: as §1

Streptococcus pneumoniae = experiment: growth inhibition, text summary of disk assay; assay type: cell-based; conditions: strain not given
Experimental: as §1
(§2) Crude material from the initial synthesis reactions was used to test the potential of the analogues as antibiotics in susceptibility assays where a solution of the compound was placed on a paper disk on a lawn of bacteria. As described above, E. coli BAS901 is deficient in the Imp/OstA protein, an outer membrane protein, involved in cell envelope biogenesis (1, 5). […] The antibiotic activity of the peptides synthesized in this study was initially assayed using a disk assay where samples were applied to sterile paper disks placed on a fresh lawn of bacterial culture on Tryptic Soya, Luria Broth, or Brain Heart Infusion Agar plates. These were then incubated for 16 hrs at 37° C. and the zone of growth inhibition surrounding the disks recorded.

[11] = test system: Staphylococcus epidermidis; experiment: growth inhibition, text summary of disk assay; assay type: cell-based; conditions: strain not given
Experimental: as §1, §2

Bacillus subtilis = experiment: growth inhibition, text summary of disk assay; assay type: cell-based; conditions: strain not given
Experimental: as §1, §2

Enterococcus faecalis = experiment: growth inhibition, text summary of disk assay; assay type: cell-based; conditions: strain not given
Experimental: as §1, §2

E. coli (ATCC 25922) = experiment: disk assay, zone of growth inhibition; assay type: cell-based, Escherichia coli; conditions: wild-type
Experimental: as §1
(§3) Crude material from the initial synthesis reactions was used to test the potential of the analogues as antibiotics in susceptibility assays where a solution of the compound was placed on a paper disk on a lawn of bacteria. As described above, E. coli BAS901 is deficient in the Imp/OstA protein, an outer membrane protein, involved in cell envelope biogenesis (1, 5). […] These were then incubated for 16 hrs at 37° C. and the zone of growth inhibition surrounding the disks recorded.

B. subtilis 1A752 [12] = experiment: bacteriostatic or bactericidal action; assay type: cell-based, Bacillus subtilis
E. coli BAS901 [13] = experiment: bacteriostatic or bactericidal action; assay type: cell-based, Escherichia coli
Vgb = molecular target: T1, Vgb (Staphylococcus aureus, UniProt P17978); experiment: inhibition of the streptogramin inactivating enzyme Vgb; assay type: biochemical; conditions: concentrations of up to 0.4 mM
T1 construct: made in house
T1 sequence (P17978 whole entry): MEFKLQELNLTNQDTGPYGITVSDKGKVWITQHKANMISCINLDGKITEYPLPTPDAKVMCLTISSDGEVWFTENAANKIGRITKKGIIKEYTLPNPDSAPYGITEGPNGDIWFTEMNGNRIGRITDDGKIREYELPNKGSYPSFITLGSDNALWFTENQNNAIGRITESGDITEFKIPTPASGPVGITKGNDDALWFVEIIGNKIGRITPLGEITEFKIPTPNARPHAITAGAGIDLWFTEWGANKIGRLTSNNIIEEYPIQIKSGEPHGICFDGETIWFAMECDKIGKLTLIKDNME
Experimental: On-resin chemical cyclization of 5 provided sufficient material for more extensive analysis of antibacterial activity and investigation of its ability to inhibit the streptogramin inactivating enzyme Vgb. This enzyme however was insensitive to 5 in concentrations of up to 0.4 mM. […] Regardless of the actual mechanism, the design of these streptogramin-tyrocidine chimeras of the present invention result in antibiotics that are not recognized by a streptogramin inactivation enzyme.

B. subtilis 1A752 [14] = experiment: checker-board synergy test with dalfopristin; assay type: cell-based, Bacillus subtilis; conditions: microtiter plates, checker-board technique
Description: (§4) Quinupristin and dalfopristin act in a synergistic manner.

E. coli BAS901 [15] = experiment: checker-board synergy test with dalfopristin; assay type: cell-based, Escherichia coli; conditions: microtiter plates, checker-board technique
Description: as §4

Micrococcus luteus = experiment: disk assay, zone of growth inhibition; assay type: cell-based
Experimental: as §1, §2

[16] = test system: Enterococcus faecium CP54-32; experiment: disk assay, zone of growth inhibition; assay type: cell-based
Experimental: as §1, §2

Bacillus subtilis 1A752 = experiment: disk assay, zone of growth inhibition; assay type: cell-based
Experimental: as §1, §2

[17] = test system: S. saprophyticus (ATCC 15305); experiment: disk assay, zone of growth inhibition; assay type: cell-based, Staphylococcus saprophyticus
Experimental: as §1, §3

Escherichia coli BAS901 = experiment: disk assay, zone of growth inhibition; assay type: cell-based; conditions: Escherichia coli BAS901, hyperpermeable, 16 hr at 37° C.
Experimental: Partially purified material from these reactions was used to test their antibiotic properties in disk diffusion susceptibility assays using E. coli BAS901.
as §1, §3

E. coli BAS901/pUC19 = experiment: disk assay, zone of growth inhibition; assay type: cell-based, Escherichia coli
Description: A hyperpermeable E. coli strain, E. coli BAS901, harboring a plasmid constitutively expressing Vgb was created for in vivo studies. The plasmids pVGB, described previously in [14], and […] were digested with Xbal and BamHI, to yield an approximately 1 kb fragment containing a ribosomal binding site upstream of vgb, and linearized pUC19 backbone, respectively. The vgb fragment was then subcloned into the linearized pUC19 backbone downstream of pLac yielding pUC19-VGB. Both pUC19-VGB and pUC19 were transformed E. coli BAS901.
as §1, §2

B. subtilis W23 = experiment: disk assay, zone of growth inhibition; assay type: cell-based, Bacillus subtilis
Experimental: as §1, §3

B. subtilis L5706 = experiment: disk assay, zone of growth inhibition; assay type: cell-based, Bacillus subtilis
Experimental: as §1, §3

In the case of `CC(C)C[C@@H]1NC(=O)[C@H](CCCN)NC(=O)[C@H]([C@@H](C)O)NC(=O)[C@@H](NC(=O)c2ncccc2O)CNC(=O)[C@H](Cc2ccccc2)NC(=O)[C@@H]2CCCN2C(=O)[C@@H](Cc2ccccc2)NC1=O` [Compound 5] ({Picolinoyl(3-OH)}-[Dap]T[Orn]L[dF]PF; lactam 1-C), the MIC ([1]; ATCC 12228, 16 h) is reported as 64 µg/mL (≈ 69 µM), the MIC ([2]; ATCC 29212, 16 h) is reported as 128 µg/mL (≈ 138 µM) and the MIC ([3]; Staphylococcus aureus RN4220/pJIM2246Ωvgb) is reported as 256 µg/mL (≈ 276 µM). The MIC [4] was 256 µg/mL (≈ 276 µM), the MIC ([5]; ATCC 14990, 16 h) was 64 µg/mL (≈ 69 µM) and the MIC ([6]; Staphylococcus aureus RN4220/pJIM2246ΩermB) was 256 µg/mL (≈ 276 µM). The MIC [7] was 256 µg/mL (≈ 276 µM), the MIC ([8]; ATCC 15305, 16 h) was 64 µg/mL (≈ 69 µM) and the MIC ([9]; ATCC 49619, 16 h) was 128 µg/mL (≈ 138 µM). The MIC ([10]; ATCC 6305, 16 h) was 32 µg/mL (≈ 34.5 µM), the growth inhibition activity (Streptococcus pneumoniae) was “active” and the growth inhibition activity [11] was “active”. The growth inhibition activity (Bacillus subtilis) was “active”, the growth inhibition activity (Enterococcus faecalis) was “active” and the “Zone of Inhibition” value (E. coli (ATCC 25922)) was “n.i”. For the same compound, the bacteriostatic or bactericidal (B. subtilis 1A752 [12]) was “bacteriostatic and not bactericidal”, the bacteriostatic or bactericidal (E. coli BAS901 [13]) was “bacteriostatic and not bactericidal” and the “inhibition of Vgb” value (Vgb) was “insensitive”. The synergy with dalfopristin (B. subtilis 1A752 [14]) was “additive, not synergistic” and the synergy with dalfopristin (E. coli BAS901 [15]) was “additive, not synergistic”.

For `CC[C@H]1NC(=O)[C@@H](NC(=O)c2ncccc2O)[C@@H](C)OC(=O)[C@H](c2ccccc2)NC(=O)[C@@H]2CC(=O)[C@H](CS[C@@H]3CN4CCC3CC4)CN2C(=O)[C@H](Cc2ccc(N(C)C)cc2)N(C)C(=O)[C@@H]2CCCN2C1=O` [Quinupristin, quinupristin, reference compound] ({Picolinoyl(3-OH)}-T[dAbu]P[NMePhe(4-NMe2)][X1][Phg]; ester 1-C), the “Zone of Inhibition” value (Micrococcus luteus) was 2.7 cm, the “Zone of Inhibition” value [16] was 1.8 cm and the “Zone of Inhibition” value (Bacillus subtilis 1A752) was 1.8 cm. For the same compound, the MIC ([1]; ATCC12228, Staphylococcus epidermidis (ATCC 12228), read-out: MIC) was 0.5 µg/mL (≈ 0.489 µM), the MIC ([2]; ATCC29212, Enterococcus faecalis (ATCC 29212), read-out: MIC) was 8 µg/mL (≈ 7.83 µM) and the MIC ([3]; Staphylococcus aureus) was 8 µg/mL (≈ 7.83 µM). The MIC [4] was 2 µg/mL (≈ 1.96 µM), the MIC ([5]; ATCC14990, Staphylococcus epidermidis (ATCC 14990), read-out: MIC) was 1 µg/mL (≈ 0.978 µM) and the MIC ([6]; Staphylococcus aureus) was 8 µg/mL (≈ 7.83 µM). For the same compound, the MIC ([7]; ATCC29213, read-out: MIC) was 4 µg/mL (≈ 3.91 µM), the MIC ([8]; ATCC15305, Staphylococcus saprophyticus (ATCC 15305), read-out: MIC) was 8 µg/mL (≈ 7.83 µM) and the MIC ([9]; ATCC49619, Streptococcus pneumoniae (ATCC 49619), read-out: MIC) was 0.5 µg/mL (≈ 0.489 µM). For the same compound, the MIC ([10]; ATCC6305, Streptococcus pneumoniae (ATCC 6305), read-out: MIC) was 1 µg/mL (≈ 0.978 µM), the “Zone of Inhibition” value (E. coli (ATCC 25922)) was “n.i” and the “Zone of Inhibition” value [17] was 2.3 cm. The “Zone of Inhibition” value (Escherichia coli BAS901) was 2.2 cm, the “Zone of Inhibition” value (E. coli BAS901/pUC19) was 2.2 cm and the “Zone of Inhibition” value (E. coli BAS901/pUC19; listed as quinupristin) was “exhibit a zone of inhibition”. The “Zone of Inhibition” value (B. subtilis W23) was 2.1 cm and the “Zone of Inhibition” value (B. subtilis L5706) was 2.1 cm.
